In patent US9745341B2, “Tubulysins and processes for preparing” (priority 2007, dated 2017):

tested on: folate receptor-positive KB cells; experiment: In vitro concentration-dependent cytotoxic activity (3H-thymidine incorporation); assay type: cell-based; conditions: Homo sapiens, KB, read-out: Cytotoxicity IC50 (nM)
Experimental: The compounds described herein are evaluated using an in vitro cytotoxicity assay that predicts the ability of the drug to inhibit the growth of folate receptor-positive KB cells. The KB cells are exposed for up to 7 h at 37° C. over a range of concentrations of folate-drug conjugate in the absence or presence of at least a 100-fold excess of folic acid. The cells are then rinsed once with fresh culture medium and incubated in fresh culture medium for 72 hours at 37° C. Cell viability is assessed using a ^3H-thymidine incorporation assay.
Cells were heavily seeded in 24-well Falcon plates and allowed to form nearly confluent monolayers overnight. Thirty minutes prior to the addition of test article, spent medium was aspirated from all wells and replaced with fresh folate-free RPMI (FFRPMI). Note, designated wells received media containing 100 μM folic acid; and, cells within the latter wells were used to determine the targeting specificity, since cytotoxic activity produced in the presence of excess folic acid (enables competition for FR binding) would signify the portion of the total activity that was unrelated to FR-specific delivery. Following one rinse with 1 mL of fresh FFRPMI containing 10% heat-inactivated fetal calf serum, each well received 1 mL of media containing increasing concentrations of test article (4 wells per sample) in the presence or absence of 100 μM free folic acid (a binding site competitor). Treated cells were pulsed for 2 h at 37° C., rinsed 4 times with 0.5 mL of media, and then chased in 1 mL of fresh media up to 70 h. Spent media was aspirated from all wells and replaced with fresh media containing 5 μCi/mL ^3H-thymidine. Following a further 2 h 37° C. incubation, cells were washed 3 times with 0.5 mL of PBS and then treated with 0.5 mL of ice-cold 5% trichloroacetic acid per well. After 15 min, the trichloroacetic acid was aspirated and the cell material solubilized by the addition of 0.5 mL of 0.25 N sodium hydroxide for 15 min. Four hundred and fifty μL of each solubilized sample were transferred to scintillation vials containing 3 mL of Ecolume scintillation cocktail and then counted in a liquid scintillation counter. Final results are expressed as the percentage of ^3H-thymidine incorporation relative to untreated controls.
As shown in the following table, dose-dependent cytotoxicity is measurable, and in most cases, the IC50 values (concentration of drug conjugate required to reduce ^3H-thymidine incorporation into newly synthesized DNA by 50%) are in the low nanomolar range.

Row | Compound | IC50
1 | CCC(C)[C@H](NC(=O)[C@H]1CCCCN1C)C(=O)N(COC)[C@H](C[C@@H](OC(C)=O)c1nc(C(=O)N[C@@H](Cc2ccc(O)cc2)C[C@H](C)C(=O)O)cs1)C(C)C (stereo partly drawn) [EC0313, Methoxy Tubulysin] | 9 nM
2 | CCC(C)[C@H](NC(=O)[C@H]1CCCCN1C)C(=O)N(COCCO)[C@H](C[C@@H](OC(C)=O)c1nc(C(=O)N[C@@H](Cc2ccc(O)cc2)C[C@H](C)C(=O)O)cs1)C(C)C (stereo partly drawn) [EC0346, 2-Hydroxyethoxy Tubulysin] | 18 nM
3 | CCC(C)[C@H](NC(=O)[C@H]1CCCCN1C)C(=O)N(COCCC(C)C)[C@H](C[C@@H](OC(C)=O)c1nc(C(=O)N[C@@H](Cc2ccc(O)cc2)C[C@H](C)C(=O)O)cs1)C(C)C (stereo partly drawn) [EC0356] | 12 nM
4 | CCC(C)[C@H](NC(=O)[C@H]1CCCCN1C)C(=O)N(CSCCS)[C@H](C[C@@H](OC(C)=O)c1nc(C(=O)N[C@@H](Cc2ccc(O)cc2)C[C@H](C)C(=O)O)cs1)C(C)C (stereo partly drawn) [EC0374, 2-Mercaptoethylthio Tubulysin] | 24 nM
5 | CCC(C)[C@H](NC(=O)[C@H]1CCCCN1C)C(=O)N(CO)[C@H](C[C@@H](OC(C)=O)c1nc(C(=O)N[C@@H](Cc2ccc(O)cc2)C[C@H](C)C(=O)O)cs1)C(C)C (stereo partly drawn) [EC0386] | 42 nM
6 | C=CCCN(C(=O)[C@@H](NC(=O)[C@H]1CCCCN1C)C(C)CC)[C@H](C[C@@H](OC(C)=O)c1nc(C(=O)N[C@@H](Cc2ccc(O)cc2)C[C@H](C)C(=O)O)cs1)C(C)C (stereo partly drawn) [EC0550, N-Homoallyl Tubulysin] | 2 nM
7 | CCCSCN(C(=O)[C@@H](NC(=O)[C@H]1CCCCN1C)C(C)CC)[C@H](C[C@@H](OC(C)=O)c1nc(C(=O)N[C@@H](Cc2ccc(O)cc2)C[C@H](C)C(=O)O)cs1)C(C)C (stereo partly drawn) [EC0623] | 0.48 nM

same assay, conditions: concentration required to reduce 3H-thymidine incorporation into newly synthesized DNA by 50%; 2 h pulse at 37° C., chase up to 70 h; read-out: Cytotoxicity IC50

Row | Compound | IC50
8 | CC[C@H](C)[C@H](NC(=O)[C@H]1CCCCN1C)C(=O)N(COC(=O)CC(C)C)[C@H](C[C@@H](OC(C)=O)c1nc(C(=O)N[C@@H](Cc2ccc(O)cc2)C[C@H](C)C(=O)O)cs1)C(C)C [Tubulysin A, reference compound] | 2 nM
9 | Tubulysin B [reference compound] | 2.6 nM
